Laboratory results published in paper PMC11204205 (Science Advances, 2024).

Biological target: PKMζ (protein kinase Mzeta) (Homo sapiens, UniProt Q05513)
Assay: split-Venus BiFC of KIBRA-PKMζ dimerization in HEK293T cells
Format: cell-based

Chain of PKMζ (protein kinase Mzeta) (Q05513 184-592 limits assumed): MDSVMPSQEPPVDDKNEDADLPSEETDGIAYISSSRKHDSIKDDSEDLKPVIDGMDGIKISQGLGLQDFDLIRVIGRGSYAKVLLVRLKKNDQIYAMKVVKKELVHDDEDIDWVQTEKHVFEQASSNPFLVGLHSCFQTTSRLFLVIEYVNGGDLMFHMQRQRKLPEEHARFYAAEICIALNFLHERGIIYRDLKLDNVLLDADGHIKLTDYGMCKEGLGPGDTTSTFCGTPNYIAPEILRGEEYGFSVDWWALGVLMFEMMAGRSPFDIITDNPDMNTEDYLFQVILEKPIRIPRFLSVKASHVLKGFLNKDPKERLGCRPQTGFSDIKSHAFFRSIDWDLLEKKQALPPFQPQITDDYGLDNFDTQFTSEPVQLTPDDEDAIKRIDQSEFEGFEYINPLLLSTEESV
Chain of PKMζ (protein kinase Mzeta) (Q8IX03 whole entry partner): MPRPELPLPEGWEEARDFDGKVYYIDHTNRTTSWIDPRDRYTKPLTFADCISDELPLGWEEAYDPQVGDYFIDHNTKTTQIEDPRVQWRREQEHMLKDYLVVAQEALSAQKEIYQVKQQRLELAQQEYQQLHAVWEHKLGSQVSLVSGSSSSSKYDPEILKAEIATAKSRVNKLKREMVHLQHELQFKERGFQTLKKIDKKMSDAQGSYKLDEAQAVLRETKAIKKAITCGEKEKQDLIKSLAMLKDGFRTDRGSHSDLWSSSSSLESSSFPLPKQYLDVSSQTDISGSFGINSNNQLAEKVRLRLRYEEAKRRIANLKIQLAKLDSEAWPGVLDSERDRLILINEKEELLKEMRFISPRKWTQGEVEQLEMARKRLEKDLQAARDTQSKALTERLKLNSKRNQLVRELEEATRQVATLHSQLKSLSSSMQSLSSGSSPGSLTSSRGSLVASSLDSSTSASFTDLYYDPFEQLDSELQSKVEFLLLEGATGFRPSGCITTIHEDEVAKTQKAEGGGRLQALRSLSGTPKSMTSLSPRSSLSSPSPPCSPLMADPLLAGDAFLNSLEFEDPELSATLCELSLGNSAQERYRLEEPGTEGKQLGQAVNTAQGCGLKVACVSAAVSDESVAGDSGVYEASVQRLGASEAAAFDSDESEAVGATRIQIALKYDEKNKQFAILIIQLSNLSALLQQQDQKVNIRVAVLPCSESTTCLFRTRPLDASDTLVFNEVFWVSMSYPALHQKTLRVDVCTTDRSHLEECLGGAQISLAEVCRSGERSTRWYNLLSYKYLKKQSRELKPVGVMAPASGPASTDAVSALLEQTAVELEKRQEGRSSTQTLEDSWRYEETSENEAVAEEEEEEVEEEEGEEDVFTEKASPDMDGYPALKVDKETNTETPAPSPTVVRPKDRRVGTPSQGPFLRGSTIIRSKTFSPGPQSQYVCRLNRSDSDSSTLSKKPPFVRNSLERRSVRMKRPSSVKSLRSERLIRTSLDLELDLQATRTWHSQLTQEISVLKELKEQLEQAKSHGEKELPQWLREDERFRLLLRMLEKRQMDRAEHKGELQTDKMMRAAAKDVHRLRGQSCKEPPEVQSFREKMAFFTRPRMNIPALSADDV

SMILES: O=S(=O)(O)c1cc(O)c2c(S(=O)(=O)O)cc(S(=O)(=O)O)cc2c1 [ζ-stat, 1-naphthol-3,6,8-trisulfonic acid]
- IC50: ~1000 nM
